Source: PMC6010102, “N-thioalkylcarbazoles derivatives as new anti-proliferative agents: synthesis, characterisation and molecular mechanism evaluation” (Journal of Enzyme Inhibition and Medicinal Chemistry, 2018)

Biological target: T1, hTopoI (Homo sapiens, UniProt P11387)
T1 sequence (P11387 1-765): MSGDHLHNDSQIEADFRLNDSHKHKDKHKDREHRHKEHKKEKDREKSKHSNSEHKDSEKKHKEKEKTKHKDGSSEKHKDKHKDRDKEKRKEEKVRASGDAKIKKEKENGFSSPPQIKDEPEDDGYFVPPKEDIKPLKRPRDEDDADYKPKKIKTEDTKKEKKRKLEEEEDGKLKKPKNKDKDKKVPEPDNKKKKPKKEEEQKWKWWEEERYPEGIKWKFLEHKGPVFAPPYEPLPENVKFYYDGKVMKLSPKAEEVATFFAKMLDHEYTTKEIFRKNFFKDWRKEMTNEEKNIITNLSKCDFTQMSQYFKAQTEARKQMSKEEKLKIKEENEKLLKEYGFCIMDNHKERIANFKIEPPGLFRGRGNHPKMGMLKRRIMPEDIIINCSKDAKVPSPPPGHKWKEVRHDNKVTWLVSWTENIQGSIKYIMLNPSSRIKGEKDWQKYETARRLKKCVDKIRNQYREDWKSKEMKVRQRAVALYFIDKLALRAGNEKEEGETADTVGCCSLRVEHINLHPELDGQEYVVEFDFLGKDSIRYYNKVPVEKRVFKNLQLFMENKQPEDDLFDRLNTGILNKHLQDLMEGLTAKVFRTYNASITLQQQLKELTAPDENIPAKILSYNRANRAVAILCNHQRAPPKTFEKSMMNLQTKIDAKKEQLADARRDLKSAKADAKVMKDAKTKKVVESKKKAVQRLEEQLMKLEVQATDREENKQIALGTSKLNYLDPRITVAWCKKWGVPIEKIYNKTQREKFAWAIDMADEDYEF
Assay: Human topoisomerase I relaxation assay
Format: biochemical
Conditions: direct in vitro assay, data not shown
Protocol: Human topoisomerase I relaxation assay: hTopoI relaxation assays were performed as reported in Iacopetta et al.[8].

hTopoI inhibition: no inhibition
SMILES: Cc1ccc(C)c2c1c1cc(Br)ccc1n2CCCCCCCS [5c, 7-(6-Bromo-1,4-dimethyl-9H-carbazol-9-yl)-heptane-1-thiol]
